Source: PubChem BioAssay (NCI)
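Where inhibition never reached the appropriate level, the endpoint shown equals the highest concentration tested. Otherwise, values were interpolated linearly from a five-concentration, 48-hour dose response in 96-well plates. At the TGI there is no net growth.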

Legend:
Assay in all cases: NCI tumour cell line growth inhibition, 48 h
SK-OV-3 ovarian = tested on: SK-OV-3 ovarian
LXFL 529 NSCLC = tested on: LXFL 529 NSCLC
UACC-257 melanoma = tested on: UACC-257 melanoma
COLO 205 colon = tested on: COLO 205 colon
NCI-H226 lung = tested on: NCI-H226 lung
RXF 393 renal = tested on: RXF 393 renal
SK-MEL-28 melanoma = tested on: SK-MEL-28 melanoma
TK-10 renal = tested on: TK-10 renal
U251 CNS = tested on: U251 CNS
CCRF-CEM leukemia = tested on: CCRF-CEM leukemia
MOLT-4 leukemia = tested on: MOLT-4 leukemia
NCI-H460 lung = tested on: NCI-H460 lung
KM12 colon = tested on: KM12 colon
SNB-75 CNS = tested on: SNB-75 CNS
A549 NSCLC = tested on: A549 NSCLC
RXF-631 renal = tested on: RXF-631 renal
OVCAR-5 ovarian = tested on: OVCAR-5 ovarian
OVCAR-4 ovarian = tested on: OVCAR-4 ovarian
A498 renal = tested on: A498 renal
HCC-2998 colon = tested on: HCC-2998 colon
MALME-3M melanoma = tested on: MALME-3M melanoma
M14 melanoma = tested on: M14 melanoma
K-562 leukemia = tested on: K-562 leukemia
786-0 renal = tested on: 786-0 renal
IGROV1 ovarian = tested on: IGROV1 ovarian
UO-31 renal = tested on: UO-31 renal
SF-539 CNS = tested on: SF-539 CNS
HT29 colon = tested on: HT29 colon
DLD-1 colon = tested on: DLD-1 colon
OVCAR-3 ovarian = tested on: OVCAR-3 ovarian
SNB-19 CNS = tested on: SNB-19 CNS
KM20L2 colon = tested on: KM20L2 colon
HOP-62 NSCLC = tested on: HOP-62 NSCLC
SR leukemia = tested on: SR leukemia
RPMI-8226 leukemia = tested on: RPMI-8226 leukemia
OVCAR-8 ovarian = tested on: OVCAR-8 ovarian
HCT-15 colon = tested on: HCT-15 colon
NCI-H522 lung = tested on: NCI-H522 lung
SNB-78 CNS = tested on: SNB-78 CNS
DMS 114 small cell lung = tested on: DMS 114 small cell lung
UACC-62 melanoma = tested on: UACC-62 melanoma
NCI-H23 lung = tested on: NCI-H23 lung
SF-295 CNS = tested on: SF-295 CNS
ACHN renal = tested on: ACHN renal
SF-268 CNS = tested on: SF-268 CNS
DMS 273 small cell lung = tested on: DMS 273 small cell lung
SN12C renal = tested on: SN12C renal
SK-MEL-2 melanoma = tested on: SK-MEL-2 melanoma
HCT-116 colon = tested on: HCT-116 colon
EKVX NSCLC = tested on: EKVX NSCLC
M19-MEL melanoma = tested on: M19-MEL melanoma
SW-620 colon = tested on: SW-620 colon
HL-60(TB) leukemia = tested on: HL-60(TB) leukemia
HOP-92 NSCLC = tested on: HOP-92 NSCLC
LOX IMVI melanoma = tested on: LOX IMVI melanoma
HOP-18 NSCLC = tested on: HOP-18 NSCLC
XF 498 CNS = tested on: XF 498 CNS
SK-MEL-5 melanoma = tested on: SK-MEL-5 melanoma

`CCc1ccccc1NC(=O)/C(CC(=O)c1c(C)n([O-])c2ccccc2[n+]1=O)=N\NS(=O)(=O)c1ccc(C)cc1` was tested. Which TGI (SK-OV-3 ovarian) did it give?
The TGI was greater than 100 µM.

What about the TGI (LXFL 529 NSCLC) of the same compound?
The TGI was greater than 100 µM.

What about the TGI (UACC-257 melanoma) of the same compound?
Its TGI is 82.1 µM.

What about the TGI (COLO 205 colon) of the same compound?
Its TGI is greater than 100 µM.

And the TGI (NCI-H226 lung)?
The TGI was greater than 100 µM.

And the TGI (RXF 393 renal)?
The TGI was greater than 100 µM.

And the TGI (SK-MEL-28 melanoma)?
The TGI was greater than 100 µM.

And the TGI (TK-10 renal)?
The TGI was greater than 100 µM.

And the TGI (U251 CNS)?
Its TGI is greater than 100 µM.

What about the TGI (CCRF-CEM leukemia) of the same compound?
The TGI was 52.6 µM.

And the TGI (MOLT-4 leukemia)?
The TGI was 42.6 µM.

What about the TGI (NCI-H460 lung) of the same compound?
Its TGI is greater than 100 µM.

What about the TGI (KM12 colon) of the same compound?
Its TGI is greater than 100 µM.

And the TGI (SNB-75 CNS)?
The TGI was greater than 100 µM.

And the TGI (A549 NSCLC)?
The TGI was greater than 100 µM.

What about the TGI (RXF-631 renal) of the same compound?
The TGI was greater than 100 µM.

And the TGI (OVCAR-5 ovarian)?
The TGI was greater than 100 µM.

And the TGI (OVCAR-4 ovarian)?
The TGI was 90.4 µM.

And the TGI (A498 renal)?
Its TGI is greater than 100 µM.

What about the TGI (HCC-2998 colon) of the same compound?
The TGI was greater than 100 µM.

What about the TGI (MALME-3M melanoma) of the same compound?
The TGI was greater than 100 µM.

And the TGI (M14 melanoma)?
Its TGI is greater than 100 µM.

What about the TGI (K-562 leukemia) of the same compound?
The TGI was greater than 100 µM.

What about the TGI (786-0 renal) of the same compound?
The TGI was greater than 100 µM.

And the TGI (IGROV1 ovarian)?
Its TGI is greater than 100 µM.

And the TGI (UO-31 renal)?
Its TGI is greater than 100 µM.

What about the TGI (SF-539 CNS) of the same compound?
Its TGI is greater than 100 µM.

And the TGI (HT29 colon)?
The TGI was greater than 100 µM.

What about the TGI (DLD-1 colon) of the same compound?
The TGI was greater than 100 µM.

And the TGI (OVCAR-3 ovarian)?
The TGI was 80.2 µM.

What about the TGI (SNB-19 CNS) of the same compound?
The TGI was greater than 100 µM.

And the TGI (KM20L2 colon)?
The TGI was greater than 100 µM.

And the TGI (HOP-62 NSCLC)?
The TGI was greater than 100 µM.

And the TGI (SR leukemia)?
Its TGI is 42.8 µM.

What about the TGI (RPMI-8226 leukemia) of the same compound?
The TGI was 40 µM.

What about the TGI (OVCAR-8 ovarian) of the same compound?
Its TGI is greater than 100 µM.

And the TGI (HCT-15 colon)?
The TGI was greater than 100 µM.

And the TGI (NCI-H522 lung)?
The TGI was 47.1 µM.

What about the TGI (SNB-78 CNS) of the same compound?
Its TGI is greater than 100 µM.

And the TGI (DMS 114 small cell lung)?
Its TGI is 30.3 µM.

What about the TGI (UACC-62 melanoma) of the same compound?
Its TGI is 67 µM.

And the TGI (NCI-H23 lung)?
Its TGI is greater than 100 µM.

What about the TGI (SF-295 CNS) of the same compound?
The TGI was greater than 100 µM.

What about the TGI (ACHN renal) of the same compound?
Its TGI is greater than 100 µM.

What about the TGI (SF-268 CNS) of the same compound?
Its TGI is greater than 100 µM.

What about the TGI (DMS 273 small cell lung) of the same compound?
The TGI was greater than 100 µM.

What about the TGI (SN12C renal) of the same compound?
Its TGI is greater than 100 µM.

And the TGI (SK-MEL-2 melanoma)?
The TGI was greater than 100 µM.

What about the TGI (HCT-116 colon) of the same compound?
Its TGI is 55.3 µM.

And the TGI (EKVX NSCLC)?
The TGI was greater than 100 µM.

And the TGI (M19-MEL melanoma)?
Its TGI is 46.7 µM.

What about the TGI (SW-620 colon) of the same compound?
Its TGI is greater than 100 µM.

And the TGI (HL-60(TB) leukemia)?
Its TGI is 41.6 µM.

How did the TGI (SK-OV-3 ovarian) turn out when `O=c1c(O)c(-c2ccc(O)c(O)c2)oc2cc(O)ccc12` was run?
The TGI was 59.9 µM.

And the TGI (LXFL 529 NSCLC)?
The TGI was greater than 87.7 µM.

And the TGI (UACC-257 melanoma)?
The TGI was greater than 67.7 µM.

What about the TGI (COLO 205 colon) of the same compound?
The TGI was greater than 100 µM.

And the TGI (NCI-H226 lung)?
Its TGI is 39.5 µM.

What about the TGI (RXF 393 renal) of the same compound?
Its TGI is 47 µM.

And the TGI (SK-MEL-28 melanoma)?
Its TGI is greater than 58.4 µM.

And the TGI (TK-10 renal)?
The TGI was greater than 88.8 µM.

What about the TGI (U251 CNS) of the same compound?
The TGI was 35.6 µM.

And the TGI (CCRF-CEM leukemia)?
Its TGI is greater than 71.1 µM.

What about the TGI (MOLT-4 leukemia) of the same compound?
Its TGI is greater than 72.5 µM.

And the TGI (NCI-H460 lung)?
Its TGI is 29.2 µM.

What about the TGI (KM12 colon) of the same compound?
The TGI was 31 µM.

And the TGI (SNB-75 CNS)?
The TGI was 18.2 µM.

And the TGI (A549 NSCLC)?
The TGI was greater than 100 µM.

What about the TGI (HOP-92 NSCLC) of the same compound?
The TGI was 71.8 µM.

And the TGI (OVCAR-5 ovarian)?
The TGI was 42.1 µM.

What about the TGI (OVCAR-4 ovarian) of the same compound?
The TGI was greater than 100 µM.

And the TGI (A498 renal)?
The TGI was 62.3 µM.

And the TGI (HCC-2998 colon)?
Its TGI is 41.9 µM.

And the TGI (MALME-3M melanoma)?
Its TGI is greater than 77 µM.

What about the TGI (M14 melanoma) of the same compound?
Its TGI is 44 µM.

What about the TGI (K-562 leukemia) of the same compound?
The TGI was greater than 100 µM.

And the TGI (786-0 renal)?
The TGI was greater than 91.5 µM.

And the TGI (IGROV1 ovarian)?
Its TGI is greater than 62.8 µM.

What about the TGI (UO-31 renal) of the same compound?
The TGI was 23.4 µM.

What about the TGI (SF-539 CNS) of the same compound?
The TGI was 26.7 µM.

What about the TGI (HT29 colon) of the same compound?
Its TGI is 98.8 µM.

What about the TGI (DLD-1 colon) of the same compound?
Its TGI is greater than 100 µM.

And the TGI (OVCAR-3 ovarian)?
The TGI was 62 µM.

And the TGI (SNB-19 CNS)?
Its TGI is greater than 100 µM.

What about the TGI (KM20L2 colon) of the same compound?
Its TGI is 73.2 µM.

And the TGI (HOP-62 NSCLC)?
Its TGI is greater than 100 µM.

What about the TGI (SR leukemia) of the same compound?
Its TGI is 99.8 µM.

What about the TGI (LOX IMVI melanoma) of the same compound?
Its TGI is 32.4 µM.

What about the TGI (RPMI-8226 leukemia) of the same compound?
The TGI was greater than 79.9 µM.

And the TGI (OVCAR-8 ovarian)?
Its TGI is 56.3 µM.

And the TGI (HCT-15 colon)?
The TGI was 98.4 µM.

What about the TGI (NCI-H522 lung) of the same compound?
Its TGI is 45.3 µM.

And the TGI (SNB-78 CNS)?
Its TGI is 67.2 µM.

What about the TGI (DMS 114 small cell lung) of the same compound?
The TGI was 55.1 µM.

And the TGI (HOP-18 NSCLC)?
The TGI was 52.2 µM.

And the TGI (XF 498 CNS)?
Its TGI is 44.1 µM.

What about the TGI (UACC-62 melanoma) of the same compound?
Its TGI is 39.5 µM.

What about the TGI (NCI-H23 lung) of the same compound?
The TGI was 31.8 µM.

And the TGI (SK-MEL-5 melanoma)?
The TGI was 27.4 µM.

And the TGI (SF-295 CNS)?
The TGI was 54.4 µM.

And the TGI (ACHN renal)?
Its TGI is greater than 91 µM.

What about the TGI (SF-268 CNS) of the same compound?
Its TGI is greater than 74.1 µM.

And the TGI (DMS 273 small cell lung)?
Its TGI is 28.2 µM.

What about the TGI (SN12C renal) of the same compound?
Its TGI is 56.4 µM.

And the TGI (SK-MEL-2 melanoma)?
Its TGI is 23.2 µM.

What about the TGI (HCT-116 colon) of the same compound?
Its TGI is 26.2 µM.

What about the TGI (EKVX NSCLC) of the same compound?
The TGI was 65.8 µM.

And the TGI (M19-MEL melanoma)?
Its TGI is greater than 88.1 µM.

And the TGI (SW-620 colon)?
Its TGI is 60.1 µM.

What about the TGI (HL-60(TB) leukemia) of the same compound?
Its TGI is greater than 84.1 µM.
